Test results taken from patent US11517516B2, “Use of ester derivative of tryptophan as deodorant and/or perfume agent” (L'oreal, priority 2014, dated 2022).

How the values were obtained:
[1] = ex-vivo olfactory evaluation test on incubated sweat; conditions: for effect on the unpleasant odor: compared to the negative control (incubated sweat alone), concentrations as tested; for comparison of anti-odor activity, compound 1 versus ethyl N-acetyl-L-tryptophanate: equivalent dose, several concentrations (0.1%, 0.5%, 1%)
Procedure: The deodorant activity was evaluated in the ex-vivo olfactory evaluation test, on incubated sweat.
Tryptophan ethyl ester hydrochloride (compound 1 of the example A-1) was evaluated at various concentrations in a pool of fresh sweat.
The samples were prepared in 10-ml headspace screw bottles, they are incubated at 35° C. for 24 h under stirring. A sample of sweat with 1 mg of anhydrous aluminum hydroxychloride (ACH) in 1 ml of sweat (i.e. 0.1%) is incubated in order to serve as a positive reference (little odor) and a sample of sweat alone is incubated to serve as a negative reference (unpleasant odor).
The samples after incubation are evaluated olfactively by a panel of several people in a blind test on the headspace bottles. The incubated samples of sweat containing ACH and sweat alone are evaluated at the same time in order to be used respectively as […].
3 parameters are evaluated on a scale from 0 to 10: • The residual of the unpleasant odor with 0 for not very unpleasant (positive reference) and 10 for very unpleasant odor (negative reference). • The total power of the odor with 0 for little power and 10 for very powerful. • The pleasantness of the odor with 0 for not very pleasant and 10 for very pleasant.

[2] = system: Corynebacterium xerosis CIP 5216; experiment: killing test: number of viable micro-organisms after contact; format: cell-based; conditions: 0.5%; for viable micro-organisms, CFU/g of preparation: 35° C., inoculum 1.4E7
Text: The anti-microbial activity of Tryptophan ethyl ester hydrochloride (compound 1) was valuated in vitro on Corynebacterium xerosis (killing test, quantity of micro-organisms killed). Purpose of test: Quantitative determination of the activity of a cosmetic starting material with respect to Corynebacterium xerosis, a micro-organism involved in the phenomena linked to underarm odor. This micro-organism is placed in optimum growth conditions. Protocol: The model strain used is: Corynebacterium xerosis CIP 5216 (bacteria) The strain is placed into contact with the starting material to be tested in a suitable liquid culture medium. The dilutions of the compounds under evaluation are performed in agar at 1:1000, making it possible, for dispersible compounds under evaluation, to do away with the use of a solvent which could introduce bias in the evaluation of the compounds. In parallel, a growth control, in which the starting material to be tested is replaced with diluent, is prepared in the same conditions. The samples are placed in a rotating incubator at 35° C. and maintained under stirring for the entire duration of the test. After 2, 6 and 24 hours of contact, the number of viable micro-organisms remaining in the mixture is evaluated. The results are expressed as a logarithm of the number of micro-organisms per milliliter of mixture.

[3] = Table 4, 0.3% in incubated sweat, scale 0 to 10
[4] = Table 5, 0.5% in incubated sweat, scale 0 to 10
[5] = incubated sweat, release of odorous volatile molecules
[6] = Table 3, 0.5% in incubated sweat, scale 0 to 10, panel of 6
[7] = Table 1, 0.1% in sweat, 35° C. 24 h, scale 0 to 10, panel of 6
[8] = Table 1, 0.5% in sweat, scale 0 to 10, panel of 6
[9] = Table 1, 1% in sweat, scale 0 to 10, panel of 6
[10] = Table 2, 0.1% in sweat, scale 0 to 10, panel of 6
[11] = Table 2, 0.5% in sweat, scale 0 to 10, panel of 6
[12] = Table 2, 1% in sweat, scale 0 to 10, panel of 6
[13] = Table 3, positive reference, 1 mg in 1 ml of sweat (0.1%), scale 0 to 10
[14] = Table 4, positive reference, 1 mg in 1 ml of sweat (0.1%), scale 0 to 10
[15] = Table 5, positive reference, 1 mg in 1 ml of sweat (0.1%), scale 0 to 10

## CCCCCCCCOC(=O)[C@@H](N)Cc1c[nH]c2ccccc12.Cl [Compound 6, Tryptophan octyl ester hydrochloride]
[1]; [3]
  Pleasantness of the odor: 7
  Power: 7
  Residual unpleasant odor: 0.3
[1]; [4]
  Pleasantness of the odor: 7.7
  Power: 6.3
  Residual unpleasant odor: 0.3
[1]
  effect on the unpleasant odor: effect of reducing the unpleasant odor
[1]; [5]
  Pleasantness of the odor: generates a pleasant odor

## C=CC(C)CCCC(C)(C)OC(=O)[C@@H](N)Cc1c[nH]c2ccccc12 (stereo partly drawn) [Compound 5, Tryptophan dihydromyrcenyl ester]
[1]; [6]
  Pleasantness of the odor: 5.8
  Power: 5.5
  Residual unpleasant odor: 2.5
[1]
  effect on the unpleasant odor: effect of reducing the unpleasant odor
[1]; [5]
  Pleasantness of the odor: contribute to the pleasantness of the odor

## CCOC(=O)[C@@H](N)Cc1c[nH]c2ccccc12.Cl [Compound 1, L-tryptophan ethyl ester chlorhydride]
[2]; in terms of the growth control
  anti-microbial activity on C. xerosis: excellent anti-microbial activity
[2]; 2 hours of contact
  viable micro-organisms, CFU/g of preparation: 4.6E3 CFU/g of preparation
[2]; 6 hours of contact
  viable micro-organisms, CFU/g of preparation: 4.0E1 CFU/g of preparation
[2]; 24 hours of contact
  viable micro-organisms, CFU/g of preparation: <20 CFU/g of preparation
[2]; after 2 h of contact
  reduction in terms of the growth control: 3.3 Log Units
[2]; after 6 h of contact
  reduction in terms of the growth control: 5.4 Log
[2]; after 24 h of contact
  reduction in terms of the growth control: greater than or equal to 6.6 Log
[1]; [7]
  Power: 3.2
  Residual unpleasant odor: 3.4
[1]; [8]
  Power: 2.8
  Residual unpleasant odor: 3.2
[1]; [9]
  Power: 1.4
  Residual unpleasant odor: 0.6
[1]; [10]
  Power: 3.2
  Residual unpleasant odor: 3.4
[1]; [11]
  Power: 2.8
  Residual unpleasant odor: 3.2
[1]; [12]
  Power: 1.4
  Residual unpleasant odor: 0.6
[1]; [3]
  Pleasantness of the odor: 5.3
  Power: 3
  Residual unpleasant odor: 1.7
[1]; [4]
  Pleasantness of the odor: 5.7
  Power: 3.3
  Residual unpleasant odor: 1.3
[1]
  effect on the unpleasant odor: clear decrease in the unpleasant odor
[1]; incubated sweat
  comparison of anti-odor activity, compound 1 versus ethyl N-acetyl-L-tryptophanate: superiority
[1]; incubated sweat, listed as Tryptophan ester hydrochloride
  comparison of anti-odor activity, compound 1 versus ethyl N-acetyl-L-tryptophanate: better anti-odor activity than the Ethyl N-acetyl-L-tryptophanate

## CC/C=C\CCOC(=O)[C@@H](N)Cc1c[nH]c2ccccc12.Cl [Compound 4, Tryptophan cis-3-hexenyl ester hydrochloride]
[1]; [6]
  Pleasantness of the odor: 6
  Power: 7
  Residual unpleasant odor: 2.5
[1]
  effect on the unpleasant odor: effect of reducing the unpleasant odor
[1]; [5]
  Pleasantness of the odor: contribute to the pleasantness of the odor

## N[C@@H](Cc1c[nH]c2ccccc12)C(=O)OCc1ccccc1 [Compound 7, Tryptophan benzyl ester]
[1]; [4]
  Pleasantness of the odor: 3.7
  Power: 4.3
  Residual unpleasant odor: 3
[1]
  effect on the unpleasant odor: effect on the reduction of the unpleasant odor
[1]; [5]
  Pleasantness of the odor: generate a pleasant odor

## CC(C)(C)OC(=O)[C@@H](N)Cc1c[nH]c2ccccc12.Cl [Compound 8, Tryptophan tertiobutyl ester hydrochloride]
[1]; [4]
  Pleasantness of the odor: 5.7
  Power: 4
  Residual unpleasant odor: 1.7
[1]
  effect on the unpleasant odor: effect on the reduction of the unpleasant odor
[1]; [5]
  Pleasantness of the odor: generate a pleasant odor

## CC/C=C\CCOC(=O)[C@@H](N)Cc1c[nH]c2ccccc12 [Compound 3, Tryptophan cis-3-hexenyl ester]
[1]; [6]
  Pleasantness of the odor: 7.8
  Power: 6.8
  Residual unpleasant odor: 1
[1]
  effect on the unpleasant odor: effect of reducing the unpleasant odor
[1]; [5]
  Pleasantness of the odor: contribute to the pleasantness of the odor

## anhydrous aluminum hydroxychloride [ACH, reference compound]
[1]; [7]
  Power: 1.6
  Residual unpleasant odor: 0.5
[1]; [10]
  Power: 1.6
  Residual unpleasant odor: 0.5
[1]; [13]
  Pleasantness of the odor: 4
  Power: 0.8
  Residual unpleasant odor: 0.3
[1]; [14]
  Pleasantness of the odor: 3.7
  Power: 2.7
  Residual unpleasant odor: 2.7
[1]; [15]
  Pleasantness of the odor: 5
  Power: 2
  Residual unpleasant odor: 1.7

## CCOC(=O)[C@H](Cc1c[nH]c2ccccc12)NC(C)=O [Compound 2, ethyl N-Acetyl-L-tryptophanate, reference compound]
[1]; [10]
  Power: 6.2
  Residual unpleasant odor: 6.8
[1]; [11]
  Power: 6.8
  Residual unpleasant odor: 7.5
[1]; [12]
  Power: 6.6
  Residual unpleasant odor: 7
[1]; incubated sweat
  comparison of anti-odor activity, compound 1 versus ethyl N-acetyl-L-tryptophanate: not as effective as Tryptophan ethyl ester hydrochloride
